Holding throughout (test): NCI-60 cell line screen, 48 h
Assay [1] relates to NCI/ADR-RES.
Assay [2] has as its system SK-MEL-28.
The subject of assay [3] is UO-31.
Assay [4] has as its system CAKI-1.
Assay [5] relates to LOX IMVI.
Assay [6] relates to NCI-H226.
The test system of assay [7] is OVCAR-5.
Assay [8] deals with A498.
The test system of assay [9] is MDA-MB-231.
Assay [10] concerns MDA-MB-435.
For assay [11], the system named is Malme-3M.
The test system of assay [12] is MCF7.
Assay [13] deals with EKVX.
Assay [14] relates to HL-60.
Assay [15] concerns MOLT-4.
The test system of assay [16] is OVCAR-3.
Assay [17] concerns SNB-19.
Assay [18] has as its system T47D.
The test system of assay [19] is TK-10.
Assay [20] deals with HT-29.

Molecules are shown by their SMILES.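 Compound exposure: 48 hours, 5 concentrations, 96-well plates. Abbreviation: GI50, concentration required for 50% inhibition of growth.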 Calls of active or inactive are those of the source. Rule as the data show it: active = GI50 up to about 1.1 µM and inactive = higher.

In the case of `Nc1ccc2c(=O)cc(-c3ccc(Br)s3)[nH]c2n1`, the GI50 in assay [1] is 2.6 µM (inactive); in assay [2], 3.08 µM (inactive); in assay [3], 2.64 µM (inactive); in assay [4], 4.46 µM (inactive); in [5], 4.69 µM (inactive); in assay [6] it was 2.15 µM (inactive). Moreover, the GI50 in assay [7] was 11.6 µM (inactive); in assay [8] it was 3.21 µM (inactive); in assay [9] it was 16.8 µM (inactive); in assay [10] it was 0.32 µM (active); in [11], 12.4 µM (inactive); in [12], 2.15 µM (inactive). The GI50 in [13] was 7.59 µM (inactive); in [14] it was 2.41 µM (inactive); in [15], 2.33 µM (inactive); in assay [16], 3.18 µM (inactive); in assay [17], 4.63 µM (inactive); in assay [18], 4.16 µM (inactive). For the same molecule, the GI50 was 11.7 µM (inactive) in assay [19] and 4.74 µM (inactive) in assay [20].

Turning to `COC(=O)C1(C)CCCC2(C)C3CCC4CC3(C=C4CO)CCC12` (stereo not given), the GI50 in assay [1] was 24.4 µM (inactive); in assay [2], 66.7 µM (inactive); in [3], 32.9 µM (inactive); in [4] it was 43.8 µM (inactive); in assay [5], 20.7 µM (inactive); in [6], 53.2 µM (inactive). Moreover, the GI50 in [7] is > 100 µM (inactive); in [8], 87.9 µM (inactive); in assay [9], 73.5 µM (inactive); in [10] it was 83.2 µM (inactive); in assay [11], 27 µM (inactive); in assay [12], 22.8 µM (inactive). Moreover, the GI50 in assay [13] was 41.2 µM (inactive); in [14], 20.6 µM (inactive); in assay [15], 27.8 µM (inactive); in [16], 42.1 µM (inactive); in assay [17] it was 28.2 µM (inactive); in assay [18] it was 34.4 µM (inactive). For the same molecule, the GI50 in [19] is 91.6 µM (inactive); in [20], 16.2 µM (inactive).

In the case of `S=c1ssc2c3ssc(=S)c3n(Cc3ccccc3)c12`, the GI50 was > 100 µM (inactive) in assay [1]; > 100 µM (inactive) in assay [2]; 20.3 µM (inactive) in assay [3]; > 100 µM (inactive) in assay [4]; 43.2 µM (inactive) in [5]; > 100 µM (inactive) in assay [6]. Further, the GI50 in [7] was > 100 µM (inactive); in [8], > 100 µM (inactive); in [9], > 100 µM (inactive); in assay [10] it was > 100 µM (inactive); in assay [11], > 100 µM (inactive); in assay [12] it was 81.3 µM (inactive). For the same molecule, the GI50 is 69.7 µM (inactive) in assay [13]; > 100 µM (inactive) in [14]; 4.9 µM (inactive) in [15]; > 100 µM (inactive) in assay [16]; > 100 µM (inactive) in [17]; 22.3 µM (inactive) in assay [18]. Further, the GI50 in assay [19] and in assay [20] was > 100 µM (inactive) each time.

As to `CC(=O)OC(C)c1cc2c(s1)C(=O)c1ccsc1C2=O` (stereo not given), the GI50 in [1] is 0.271 µM (active); in assay [2], 0.172 µM (active); in [3] it was 0.184 µM (active); in assay [4] it was 0.895 µM (active); in assay [5] it was 0.0117 µM (active); in assay [6], 1.61 µM (inactive). Also, the GI50 in assay [7] was 0.458 µM (active); in [8], 1.82 µM (inactive); in [9] it was 0.209 µM (active); in assay [10], 0.0168 µM (active); in assay [11] it was 0.102 µM (active); in [12], 0.0513 µM (active). For the same molecule, the GI50 in [13] is 0.773 µM (active); in [14], 0.0122 µM (active); in assay [15], 0.262 µM (active); in assay [16], 0.0405 µM (active); in assay [17], 0.166 µM (active); in [18] it was 0.437 µM (active). Also, the GI50 in assay [19] is 1.22 µM (inactive); in assay [20], 0.17 µM (active).

With `O=C(CCCC1Cc2ccccc2C1=O)c1ccccc1` (stereo not given), the GI50 in assay [1] was 26.9 µM (inactive); in assay [2] it was > 100 µM (inactive); in assay [3] it was 47.1 µM (inactive); in assay [4] it was > 100 µM (inactive); in [5] it was 34.8 µM (inactive); in [6] it was 70.1 µM (inactive). Also, the GI50 in [7] is > 100 µM (inactive); in assay [8], 52.5 µM (inactive); in [9], > 100 µM (inactive); in assay [10], 56.1 µM (inactive); in assay [11], 44.2 µM (inactive); in [12] it was 31.2 µM (inactive). Also, the GI50 in assay [13] is 65.2 µM (inactive); in assay [14], 32.4 µM (inactive); in [15], 33.3 µM (inactive); in [16], 47.4 µM (inactive); in [17] it was 89.9 µM (inactive); in [18], 33.3 µM (inactive). For the same molecule, the GI50 was 84.5 µM (inactive) in [19] and 42.2 µM (inactive) in assay [20].

`O=C(Nc1ccc(Cl)cc1)C(=O)C1=C(O)c2ccccc2OC1`: the GI50 in [1], in assay [2], in [3], in assay [4], in assay [5] and in [6] was > 100 µM (inactive) throughout. For the same molecule, the GI50 in assay [7] is > 100 µM (inactive); in [8] it was > 100 µM (inactive); in assay [9], > 100 µM (inactive); in [10], > 100 µM (inactive); in assay [11] it was 0.665 µM (active); in assay [12] it was > 100 µM (inactive). For the same molecule, the GI50 in assay [13], in [14], in assay [15], in assay [16], in assay [17] and in assay [18] was > 100 µM (inactive) in each case. The GI50 in assay [19] and in [20] was > 100 µM (inactive) each time.

As to `Cc1cc(NS(=O)(=O)c2ccc(NC(=O)c3ccc4nc5ccccc5c(Nc5ccc(S(N)(=O)=O)cc5)c4c3)cc2)no1`, the GI50 is 31.8 µM (inactive) in [1]; 21 µM (inactive) in assay [2]; 20.1 µM (inactive) in assay [3]; 38.1 µM (inactive) in assay [4]; 13.6 µM (inactive) in assay [5]; > 100 µM (inactive) in assay [6]. Also, the GI50 is 27 µM (inactive) in assay [7]; 55.5 µM (inactive) in assay [8]; 24 µM (inactive) in [9]; 21.4 µM (inactive) in assay [10]; 21.5 µM (inactive) in assay [11]; 19.9 µM (inactive) in assay [12]. For the same molecule, the GI50 in assay [13] was 24.7 µM (inactive); in [14], 22.7 µM (inactive); in assay [15] it was 22.3 µM (inactive); in assay [16], 27.5 µM (inactive); in assay [17], 58.2 µM (inactive); in [18] it was 24.2 µM (inactive). The GI50 in [19] was 30.5 µM (inactive); in assay [20] it was 28.6 µM (inactive).

For the origin of these results see ChEMBL document CHEMBL1201862, “PubChem BioAssay data set” (2004).
